Reference: article PMC12610713, “Inhibition Profiling of Rhodiola crenulata on Lactate Dehydrogenase Isoenzymes” (Molecules, 2025)
Read-outs that look alike come from different tables or passages of the source.

Key:
recombinant LDHB [1] = target: T1, recombinant LDHB (Homo sapiens, UniProt P07195); test: LDHB enzyme activity inhibition assay (NADH oxidation, 340 nm); assay type: biochemical; conditions: for IC50: 0.08 mM sodium pyruvate, 0.04 mM NADH, 10 min pre-incubation, 30 °C, read-out: IC50 against LDHB; for inhibition rate against LDHB (selection for dose-response): components assayed at 10 µM and 40 µM
T1 construct: His-tag; made in house; host or cells: E. coli BL21(DE3)
Description: The Z’ factor (Z’ = 1 − [3 × (σₚ + σₙ)]/|μₚ − μₙ|) was used to evaluate the robustness of the screening platform, where σ represents the standard deviation, μ represents the mean value, p denotes enzyme activity, and n denotes the background signal. […] (2) The enzyme-inhibitor mixture was pre-incubated for 10 min at room temperature. […] (4) At 30 °C, the enzymatic reaction was monitored at 340 nm for 20 min.
For the enzyme activity assay, the concentrations of the R. crenulata extract were 20 µg/mL, while the 19 isolated components was assayed at 10 µM and 40 µM.

HepG2 cells = test: Cell viability assay (CCK-8) HepG2; assay type: cell-based; conditions: Homo sapiens, 72 h incubation, read-out: IC50 against HepG2
Description: (§1) The MDA-MB-231 and HepG2 cell lines, representing triple-negative breast cancer and hepatocellular carcinoma, were selected to evaluate the inhibitory effects of LDHA and LDHB inhibitors. […] Following 72 h of incubation, 10 µL of CCK-8 reagent was added to each well, and cells were further incubated for 1–4 h. Absorbance was measured at 450 nm with a reference wavelength of 600 nm for background correction. Data from three independent experiments (each with three technical replicates) were normalized to the vehicle control (100% viability) and medium-only wells (0% viability).

recombinant LDHA [2] = target: T2, recombinant LDHA (Homo sapiens, UniProt P00338); test: LDHA enzyme activity inhibition assay (NADH oxidation, 340 nm); assay type: biochemical; design: His-tag; made in house; host or cells: E. coli BL21(DE3); conditions: for inhibition rate against LDHA (selection for dose-response) / LDH inhibitory activity, LDHA compared with LDHB (inhibition rates): components assayed at 10 µM and 40 µM; for LDH inhibitory activity, LDHA compared with LDHB (inhibition rates): Figure 5
MDA-MB-231 cells = test: Cell viability assay (CCK-8) MDA-MB-231; assay type: cell-based; conditions: Homo sapiens, 72 h incubation, read-out: IC50 against MDA-MB-231
Description: as §1

CC(=O)C(=O)O [3] = test: purified protein, by the assay type; conditions: other: pyruvate varied with NADH 0.6 mM; NADH varied with sodium pyruvate 1 mM; pH 7.4; 30.0 °C
CC(=O)C(=O)O [4] = system: T3, CC(=O)C(=O)O; test: Michaelis-Menten kinetics of recombinant LDHB; assay type: biochemical, homo sapiens; conditions: other: pyruvate varied with NADH 0.6 mM; NADH varied with sodium pyruvate 1 mM; pH 7.4; 30.0 °C
T3 construct: His-tag; made in house; host or cells: E. coli BL21(DE3)
Description: (§2) Based on comprehensive literature evidence and systematic experimental validation, we established optimized enzymatic assay platforms for LDHA and LDHB inhibitor screening. In the platforms, 60 µL of purified enzyme solution (1.95 nM final concentration) was loaded into 96-well plates, followed by 140 µL of a 1:1 (v/v) pyruvate/NADH substrate mixture. Reactions were conducted in 0.1 M Tris-HCl buffer (with 10% glycerol, pH 7.4) at 30 °C, and NADH oxidation was kinetically monitored at 340 nm for 20 min. To determine the kinetic parameters, the optimization protocol for LDHA was performed as follows: with NADH fixed at 0.6 mM while varying sodium pyruvate (0.02–2.5 mM) to determine the optimal concentration; and with sodium pyruvate fixed at 1 mM while varying NADH (0.01–0.7 mM) to determine the optimal concentration. Similarly, the optimization protocol for LDHB was performed as follows: with NADH fixed at 0.6 mM while varying sodium pyruvate (0.01–1.05 mM) to determine the optimal concentration; and with sodium pyruvate fixed at 1 mM while varying NADH (0.01–0.7 mM) to determine the optimal concentration. The initial reaction rates were derived by analyzing the progress curves with OriginPro 2023 (OriginLab Co., Northampton, MA, USA). Kinetic parameters (Km and Vmax) were derived by nonlinear regression analysis of the Michaelis-Menten equation using GraphPad Prism 8.0 (GraphPad Software, San Diego, CA, USA).

recombinant LDHB [5] = target: T1, recombinant LDHB; test: Michaelis-Menten kinetics of recombinant LDHB; assay type: biochemical; conditions: pyruvate varied with NADH 0.6 mM; NADH varied with sodium pyruvate 1 mM
Description: as §2

recombinant LDHA [6] = target: T2, recombinant LDHA; test: Michaelis-Menten kinetics of recombinant LDHA; conditions: pyruvate varied with NADH 0.6 mM, NADH varied with sodium pyruvate 1 mM
[7] = 0.16 mM sodium pyruvate, 0.04 mM NADH, 10 min pre-incubation, 30 °C, read-out: IC50 against LDHA

T1 sequence (P07195 whole entry): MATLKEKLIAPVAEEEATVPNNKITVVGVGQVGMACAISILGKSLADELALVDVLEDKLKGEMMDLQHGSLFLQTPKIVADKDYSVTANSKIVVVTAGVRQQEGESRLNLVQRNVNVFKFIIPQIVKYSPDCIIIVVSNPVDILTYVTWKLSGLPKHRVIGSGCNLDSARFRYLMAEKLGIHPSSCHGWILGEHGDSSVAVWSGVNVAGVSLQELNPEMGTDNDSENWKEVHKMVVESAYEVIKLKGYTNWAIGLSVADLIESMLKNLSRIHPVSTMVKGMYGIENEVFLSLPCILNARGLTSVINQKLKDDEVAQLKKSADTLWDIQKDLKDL

Molecule | IC50 (recombinant LDHB [1]) [µM] | inhibition rate against LDHB (selection for dose-response) (recombinant LDHB [1]) | IC50 (HepG2 cells) [µM] | IC50 (recombinant LDHA [2]; [7]) [µM] | inhibition rate against LDHA (selection for dose-response) (recombinant LDHA [2]) | LDH inhibitory activity, LDHA compared with LDHB (inhibition rates) (recombinant LDHA [2]) | IC50 (MDA-MB-231 cells) [µM] | also measured
O=c1c(O)c(-c2ccc(O)cc2)oc2cc(O)cc(O)c12 [Kaempferol, kaempferol] | 8.69 ± 0.85 | exceeding 80% | 50 ± 2.5 | 0.7 ± 0.13 | exceeding 80% | stronger inhibition against LDHA than LDHB | 37.5 ± 2 | potency in inhibiting LDHA relative to LDHB (IC50 comparison) (recombinant LDHA [2]; LDHA vs LDHB): more than 10 fold
recombinant LDHA (Homo sapiens) | – | – | – | – | – | – | – | Km (CC(=O)C(=O)O [3]): 160 ± 27 µM
Cc1cc2c(C(C)C)c(O)c(O)c(C=O)c2c(O)c1-c1c(C)cc2c(C(C)C)c(O)c(O)c(C=O)c2c1O [gossypol, reference compound] | – | – | – | – | – | – | – | IC50 (recombinant LDHA [2]): 0.19 ± 0.05 µM
O=c1cc(-c2ccc(O)c(O)c2)oc2cc(O)cc(O)c12 [Luteolin, luteolin] | 2.71 ± 0.39 | exceeding 80% | 74 ± 3.5 | – | exceeding 80% | stronger inhibition against LDHA than LDHB | 25.1 ± 1 | –
O=c1c(O)c(-c2ccc(O)c(O)c2)oc2cc(O)cc(O)c12 [Quercetin] | 0.87 ± 0.07 | exceeding 80% | 54.8 ± 3 | 0.27 ± 0.02 | exceeding 80% | stronger inhibition against LDHA than LDHB | 27.3 ± 1.5 | –
O=c1oc2c(O)c(O)cc3c(=O)oc4c(O)c(O)cc1c4c23 [Ellagic acid] | – | – | 59 ± 3 | – | – | stronger inhibition against LDHA than LDHB | 54.3 ± 2.5 | –
recombinant LDHB (Homo sapiens) | – | – | – | – | – | – | – | Km (CC(=O)C(=O)O [4]): 74 ± 19 µM
O=C(O[C@@H]1Cc2c(O)cc(O)cc2O[C@@H]1c1ccc(O)c(O)c1)c1cc(O)c(O)c(O)c1 [Epicatechin gallate, epicatechin gallate] | – | – | 33.8 ± 1 | 2.27 ± 0.23 | exceeding 80% | stronger inhibition against LDHA than LDHB | 23.5 ± 1 | –
NC(=O)C1=CN([C@@H]2O[C@H](COP(=O)([O-])OP(=O)([O-])OC[C@H]3O[C@@H](n4cnc5c(N)ncnc54)[C@H](O)[C@@H]3O)[C@@H](O)[C@H]2O)C=CC1.[Na+].[Na+] [NADH, β-Nicotinamide adenine dinucleotide disodium salt] | – | – | – | – | – | – | – | Km (recombinant LDHB [5]): 40 ± 5 µM; Vmax of LDHB (recombinant LDHB [5]): 10.05 ± 0.33 µM/min; Vmax of LDHA (recombinant LDHA [6]): 15.37 ± 0.57 µM/min; Km (recombinant LDHA [6]; read-out: Km of LDHA): 39 ± 6 µM
